Like-named read-outs stand apart in the source and are kept apart here.
How the values were obtained:
Experiment in all cases: Off-target screening (CEREP)
Type in all cases: binding
Conditions in all cases: read-out: percent inhibition
Histamine H1 receptor = biological target: T1, Histamine H1 receptor (Homo sapiens, UniProt P35367)
T1 construct: purchased Eurofins CEREP SA
Method: (§1) Supplementary Table 1 │ Off-target activity screening f or MCP compou nds […]
(§2) The assays given in the table above were conducted at Eurofins CEREP S A (Celle-Lévescault, France) and were run as single point measurements in duplicates in the presence of 10 µ M of the test compound and reported as percent inhibition of the radioligand signal or control enzymatic activity. n.d., not

5HT1A = biological target: T2, 5HT1A (Homo sapiens, UniProt P08908)
T2 construct: purchased Eurofins CEREP SA
T2 sequence (P08908 1-422): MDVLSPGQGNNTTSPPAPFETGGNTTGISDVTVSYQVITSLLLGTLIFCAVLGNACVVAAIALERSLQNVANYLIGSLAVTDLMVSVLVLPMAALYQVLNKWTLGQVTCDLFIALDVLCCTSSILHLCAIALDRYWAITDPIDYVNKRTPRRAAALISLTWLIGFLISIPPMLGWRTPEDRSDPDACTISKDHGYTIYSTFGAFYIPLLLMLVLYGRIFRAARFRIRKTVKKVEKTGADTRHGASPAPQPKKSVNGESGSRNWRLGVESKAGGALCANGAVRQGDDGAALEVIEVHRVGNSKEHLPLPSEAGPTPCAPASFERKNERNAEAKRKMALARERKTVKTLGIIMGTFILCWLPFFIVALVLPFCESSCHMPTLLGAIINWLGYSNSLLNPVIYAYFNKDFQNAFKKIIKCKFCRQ
Method: as §1, §2

Alpha1A-adrenoreceptor = biological target: T3, Alpha1A-adrenoreceptor (Homo sapiens, UniProt P35348)
T3 construct: purchased Eurofins CEREP SA
T3 sequence (P35348 1-466): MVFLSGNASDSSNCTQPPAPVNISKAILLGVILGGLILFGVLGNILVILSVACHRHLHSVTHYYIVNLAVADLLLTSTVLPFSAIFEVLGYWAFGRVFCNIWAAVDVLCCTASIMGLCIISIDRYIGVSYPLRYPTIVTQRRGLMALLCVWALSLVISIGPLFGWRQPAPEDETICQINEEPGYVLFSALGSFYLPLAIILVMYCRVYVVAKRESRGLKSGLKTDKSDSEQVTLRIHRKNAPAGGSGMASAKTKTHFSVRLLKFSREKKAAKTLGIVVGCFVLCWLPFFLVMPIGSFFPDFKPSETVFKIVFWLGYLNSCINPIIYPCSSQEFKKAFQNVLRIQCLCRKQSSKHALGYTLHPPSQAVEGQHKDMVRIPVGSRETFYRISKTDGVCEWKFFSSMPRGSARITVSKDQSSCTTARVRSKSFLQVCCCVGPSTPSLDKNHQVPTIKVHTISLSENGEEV
Method: as §1, §2

5HT3 = biological target: T4, 5HT3 (Homo sapiens, UniProt P46098)
T4 construct: purchased Eurofins CEREP SA
T4 sequence (P46098 24-478): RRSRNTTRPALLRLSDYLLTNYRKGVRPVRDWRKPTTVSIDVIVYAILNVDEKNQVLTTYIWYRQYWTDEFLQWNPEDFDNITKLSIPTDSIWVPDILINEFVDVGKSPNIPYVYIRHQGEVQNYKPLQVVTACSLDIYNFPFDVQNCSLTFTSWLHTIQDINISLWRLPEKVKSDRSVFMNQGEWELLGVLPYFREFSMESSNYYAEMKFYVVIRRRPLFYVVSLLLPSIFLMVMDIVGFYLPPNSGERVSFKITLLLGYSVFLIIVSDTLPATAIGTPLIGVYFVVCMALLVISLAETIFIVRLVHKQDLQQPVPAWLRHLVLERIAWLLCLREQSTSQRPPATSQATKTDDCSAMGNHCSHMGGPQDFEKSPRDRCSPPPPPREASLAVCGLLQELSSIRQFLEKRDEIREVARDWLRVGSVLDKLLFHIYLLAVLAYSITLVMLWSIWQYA
Method: as §1, §2

Histamine H3 receptor = biological target: T5, Histamine H3 receptor (Homo sapiens, UniProt Q9Y5N1)
T5 construct: purchased Eurofins CEREP SA
T5 sequence (Q9Y5N1 whole entry): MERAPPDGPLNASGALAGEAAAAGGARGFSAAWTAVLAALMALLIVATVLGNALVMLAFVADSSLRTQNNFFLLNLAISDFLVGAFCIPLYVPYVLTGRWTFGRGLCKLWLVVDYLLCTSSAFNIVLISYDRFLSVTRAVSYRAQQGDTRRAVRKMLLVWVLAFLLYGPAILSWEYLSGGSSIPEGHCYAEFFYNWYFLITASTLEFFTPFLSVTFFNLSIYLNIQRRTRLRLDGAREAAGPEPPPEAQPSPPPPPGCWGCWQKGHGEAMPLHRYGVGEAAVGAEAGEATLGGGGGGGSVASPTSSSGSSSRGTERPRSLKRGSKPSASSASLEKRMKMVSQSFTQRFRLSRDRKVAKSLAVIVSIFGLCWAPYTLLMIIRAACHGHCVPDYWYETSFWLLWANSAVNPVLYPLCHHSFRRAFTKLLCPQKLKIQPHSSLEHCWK
Method: as §1, §2

5HT2A = biological target: T6, 5HT2A (Homo sapiens, UniProt P28223)
T6 construct: purchased Eurofins CEREP SA
T6 sequence (P28223 whole entry): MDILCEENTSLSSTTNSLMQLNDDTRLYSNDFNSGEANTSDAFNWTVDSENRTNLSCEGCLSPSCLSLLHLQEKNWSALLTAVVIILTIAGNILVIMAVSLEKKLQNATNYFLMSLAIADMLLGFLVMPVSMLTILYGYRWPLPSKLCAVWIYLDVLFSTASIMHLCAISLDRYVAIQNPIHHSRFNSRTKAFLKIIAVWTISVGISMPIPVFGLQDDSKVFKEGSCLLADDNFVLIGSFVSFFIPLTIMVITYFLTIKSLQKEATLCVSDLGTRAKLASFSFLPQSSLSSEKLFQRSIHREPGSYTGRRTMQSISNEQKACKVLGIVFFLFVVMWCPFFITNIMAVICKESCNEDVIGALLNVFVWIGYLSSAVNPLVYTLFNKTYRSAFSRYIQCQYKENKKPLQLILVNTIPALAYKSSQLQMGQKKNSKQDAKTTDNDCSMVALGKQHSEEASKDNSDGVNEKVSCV
Method: as §1, §2

[1] = biological target: T7, Angiotensin II receptor 1 (Homo sapiens, UniProt P30556)
T7 construct: purchased Eurofins CEREP SA
T7 sequence (P30556 1-359): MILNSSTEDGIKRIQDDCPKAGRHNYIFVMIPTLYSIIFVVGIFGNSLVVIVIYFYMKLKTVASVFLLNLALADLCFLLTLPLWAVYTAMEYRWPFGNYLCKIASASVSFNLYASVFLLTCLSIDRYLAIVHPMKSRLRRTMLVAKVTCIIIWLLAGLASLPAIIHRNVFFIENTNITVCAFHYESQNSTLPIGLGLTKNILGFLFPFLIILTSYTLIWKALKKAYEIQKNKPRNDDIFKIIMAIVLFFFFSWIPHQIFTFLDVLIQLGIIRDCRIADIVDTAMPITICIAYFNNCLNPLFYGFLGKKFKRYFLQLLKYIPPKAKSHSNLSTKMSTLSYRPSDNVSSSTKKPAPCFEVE
Method: as §1, §2

Histamine H2 receptor = biological target: T8, Histamine H2 receptor (Homo sapiens, UniProt P25021)
T8 construct: purchased Eurofins CEREP SA
T8 sequence (P25021 whole entry): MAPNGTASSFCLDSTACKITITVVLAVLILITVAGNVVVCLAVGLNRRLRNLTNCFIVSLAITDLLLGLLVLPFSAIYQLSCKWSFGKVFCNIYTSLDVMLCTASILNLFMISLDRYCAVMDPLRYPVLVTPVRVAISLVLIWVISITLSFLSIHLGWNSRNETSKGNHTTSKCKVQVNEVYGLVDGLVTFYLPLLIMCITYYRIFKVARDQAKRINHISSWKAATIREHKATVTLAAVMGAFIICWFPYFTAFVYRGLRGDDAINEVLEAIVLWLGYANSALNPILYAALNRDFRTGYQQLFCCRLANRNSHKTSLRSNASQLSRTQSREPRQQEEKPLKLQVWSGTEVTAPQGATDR
Method: as §1, §2

Muscarinic receptor M2 = biological target: T9, Muscarinic receptor M2 (Homo sapiens, UniProt P08172)
T9 construct: purchased Eurofins CEREP SA
T9 sequence (P08172 1-466): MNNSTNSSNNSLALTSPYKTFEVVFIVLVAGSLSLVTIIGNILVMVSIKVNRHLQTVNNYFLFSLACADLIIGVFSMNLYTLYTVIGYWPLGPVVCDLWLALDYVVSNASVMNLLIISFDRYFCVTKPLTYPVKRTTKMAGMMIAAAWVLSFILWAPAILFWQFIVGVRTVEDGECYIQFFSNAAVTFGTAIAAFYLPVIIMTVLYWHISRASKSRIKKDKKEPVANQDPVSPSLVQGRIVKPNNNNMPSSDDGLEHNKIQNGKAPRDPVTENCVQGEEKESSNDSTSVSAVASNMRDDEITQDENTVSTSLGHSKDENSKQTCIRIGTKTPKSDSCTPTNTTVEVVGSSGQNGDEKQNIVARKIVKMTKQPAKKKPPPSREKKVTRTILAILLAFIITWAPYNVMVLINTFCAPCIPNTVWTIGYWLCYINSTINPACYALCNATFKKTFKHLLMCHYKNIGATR
Method: as §1, §2

5HT2B = biological target: T10, 5HT2B (Homo sapiens, UniProt P41595)
T10 construct: purchased Eurofins CEREP SA
T10 sequence (P41595 whole entry): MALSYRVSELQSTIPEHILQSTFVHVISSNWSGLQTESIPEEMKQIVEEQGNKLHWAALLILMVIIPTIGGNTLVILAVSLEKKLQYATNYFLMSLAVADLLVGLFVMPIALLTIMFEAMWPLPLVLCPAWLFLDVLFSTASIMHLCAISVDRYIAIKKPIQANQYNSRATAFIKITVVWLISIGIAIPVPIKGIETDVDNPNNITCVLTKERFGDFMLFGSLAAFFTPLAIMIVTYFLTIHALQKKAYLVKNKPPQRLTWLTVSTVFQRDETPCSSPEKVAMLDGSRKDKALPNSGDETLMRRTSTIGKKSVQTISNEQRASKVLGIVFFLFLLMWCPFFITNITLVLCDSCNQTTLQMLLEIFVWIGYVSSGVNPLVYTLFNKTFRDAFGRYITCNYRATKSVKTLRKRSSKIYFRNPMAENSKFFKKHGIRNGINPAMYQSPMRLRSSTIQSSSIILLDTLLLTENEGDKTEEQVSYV
Method: as §1, §2

Beta2-adrenoreceptor = biological target: T11, Beta2-adrenoreceptor (Homo sapiens, UniProt P07550)
T11 construct: purchased Eurofins CEREP SA
T11 sequence (P07550 whole entry): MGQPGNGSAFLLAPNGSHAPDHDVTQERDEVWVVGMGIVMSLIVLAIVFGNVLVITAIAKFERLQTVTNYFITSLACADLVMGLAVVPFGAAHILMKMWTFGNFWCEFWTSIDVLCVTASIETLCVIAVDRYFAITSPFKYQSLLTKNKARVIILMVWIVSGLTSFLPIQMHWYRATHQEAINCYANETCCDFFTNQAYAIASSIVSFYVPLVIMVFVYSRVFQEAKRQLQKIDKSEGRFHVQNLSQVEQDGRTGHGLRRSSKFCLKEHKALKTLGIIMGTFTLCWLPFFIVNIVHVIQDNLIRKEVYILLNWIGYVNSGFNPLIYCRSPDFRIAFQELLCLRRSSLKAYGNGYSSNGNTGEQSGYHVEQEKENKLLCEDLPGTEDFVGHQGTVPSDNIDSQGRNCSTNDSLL
Method: as §1, §2

T1 sequence (P35367 whole entry): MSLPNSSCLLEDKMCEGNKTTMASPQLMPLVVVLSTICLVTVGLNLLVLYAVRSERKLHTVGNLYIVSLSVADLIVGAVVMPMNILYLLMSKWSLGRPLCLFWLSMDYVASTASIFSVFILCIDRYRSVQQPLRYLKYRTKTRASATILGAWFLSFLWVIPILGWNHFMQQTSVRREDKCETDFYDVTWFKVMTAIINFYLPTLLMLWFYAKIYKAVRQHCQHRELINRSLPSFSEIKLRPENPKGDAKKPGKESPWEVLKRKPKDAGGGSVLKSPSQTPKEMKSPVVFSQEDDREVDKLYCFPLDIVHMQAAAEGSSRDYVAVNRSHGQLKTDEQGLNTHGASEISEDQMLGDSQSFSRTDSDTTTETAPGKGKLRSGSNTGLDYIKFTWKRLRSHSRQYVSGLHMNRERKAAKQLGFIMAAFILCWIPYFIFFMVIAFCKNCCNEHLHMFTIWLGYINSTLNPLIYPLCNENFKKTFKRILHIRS

SMILES	inhibition at 10 µM (Histamine H1 receptor; 10 µM, duplicates)	inhibition at 10 µM (5HT1A; 10 µM, duplicates)	inhibition at 10 µM (Alpha1A-adrenoreceptor; 10 µM, duplicates)	inhibition at 10 µM (5HT3; 10 µM, duplicates)	inhibition at 10 µM (Histamine H3 receptor; 10 µM, duplicates)	inhibition at 10 µM (5HT2A; 10 µM, duplicates)	inhibition at 10 µM ([1]; 10 µM, duplicates)	inhibition at 10 µM (Histamine H2 receptor; 10 µM, duplicates)	inhibition at 10 µM (Muscarinic receptor M2; 10 µM, duplicates)	inhibition at 10 µM (5HT2B; 10 µM, duplicates)	inhibition at 10 µM (Beta2-adrenoreceptor; 10 µM, duplicates)	inhibition at 10 µM (Histamine H1 receptor)	inhibition at 10 µM (5HT1A)	inhibition at 10 µM (Alpha1A-adrenoreceptor)	inhibition at 10 µM (5HT3)	inhibition at 10 µM (Histamine H3 receptor)	inhibition at 10 µM (5HT2A)	inhibition at 10 µM [1]	inhibition at 10 µM (Histamine H2 receptor)	inhibition at 10 µM (Muscarinic receptor M2)	further results
CN1C(=O)[C@H](CCCN)NC(=O)[C@H](CCCN)NCc2ccccc2Sc2ccccc2CNC(=O)[C@@H]1Cc1c[nH]c2ccccc12 [RO7036668]	16%	33%	15%	6%	12%	-2%	14%	12%	14%	27%	3%	–	–	–	–	–	–	–	–	–	–
CN1C(=O)[C@H](CCCCN)NC(=O)[C@H](CCCN)NCc2cccnc2Sc2c(Cl)ccc(Cl)c2CNC(=O)[C@@H]1Cc1c[nH]c2ccccc12 [RO7075573]	–	–	–	–	–	–	–	–	–	–	–	4%	11%	22%	8%	-4%	-17%	-7%	11%	11%	inhibition at 10 µM (5HT2B): 1%; inhibition at 10 µM (Beta2-adrenoreceptor): -7%
CN1C(=O)[C@H](CCCCN)NC(=O)[C@H](CCCN)NCc2cccnc2Sc2c(Cl)ccc(-c3ccc(C(=O)O)cc3)c2CNC(=O)[C@@H]1Cc1c[nH]c2ccccc12 [RO7202110]	-3%	13%	7%	6%	5%	4%	14%	3%	-1%	14%	-11%	–	–	–	–	–	–	–	–	–	–
CN1C(=O)[C@H](CCCCN)NC(=O)[C@H](CCCN)NCc2cccnc2Sc2cccc(-c3ccc(C(=O)O)cc3)c2CNC(=O)[C@@H]1Cc1c[nH]c2ccccc12 [zosurabalpin]	–	–	–	–	–	–	–	–	–	–	–	-4%	0%	7%	3%	5%	3%	6%	-2%	17%	inhibition at 10 µM (5HT2B): -1%; inhibition at 10 µM (Beta2-adrenoreceptor): 6%
